Source: patent US20220143021A1 (Cardiff Oncology, Inc., priority 2019, published 2022)
Where “and” joins values, the source holds several entries; their conditions need not be identical. Equal values may be shown once.

Key:
human prostate tissues [1] = conditions: Hennenberg et al., 2018; cited from earlier work
human prostate tissues [2] = test: organ bath, noradrenaline-induced contractions of human prostate strips
Description: Human prostate tissues were obtained from patients undergoing radical prostatectomy for prostate cancer (n=107). Patients who underwent previous transurethral resection of the prostate (TURP) were excluded. This study was carried out in accordance with the Declaration of Helsinki of the World Medical Association, and has been approved by the ethics committee of the Ludwig-Maximilians University, Munich, Germany (Ethikkommission bei der LMU Munchen, approval number 19-737). Informed consent was obtained from all patients. According to the ethical approval, samples and data were collected and analyzed anonymously, so that no data on patients' characteristics were stored. Samples were taken immediately after prostatectomy, following macroscopical examination by an uro-pathologist. All tissues were taken from the periurethral zone, considering that most prostate cancers arise in the peripheral zone (Pradidarcheep et al., 2011; Shaikhibrahim et al., 2012). […] BPH is present in 80-83% of patients with prostate cancer (Alcaraz et al., 2009; Orsted and Bojesen, 2013). Typically, such tissues show varying content of prostate-specific antigen (PSA), and different contents of smooth muscle and glandular epithelia, reflecting that BPH is present to different degree (Wang et al., 2016a, 2016c). For macroscopic examination and sampling, the prostate was opened by a single longitudinal cut from the capsule to the urethra. Subsequently, both intersections were checked macroscopically for any obvious tumor infiltration. Because tumors are usually located to the peripheral zone, tumor infiltration in the periurethral zone (where sampling was performed) was very rare (found in less than 1% of prostates). Prostates showing tumors in the periurethral zone in macroscopic inspection were not subjected to sampling and were not included in this study. Organ bath studies were performed immediately after sampling, while samples for molecular analyses were shock frozen in liquid nitrogen and stored at −80° C.
Prostate strips (6×3×3 mm) were mounted in 10 ml aerated (95% 02 and 5% CO2) tissue baths (Danish Myotechnology, Aarhus, Denmark), containing Krebs-Henseleit solution (37° C., pH 7.4) with following composition: 118 mM NaCl, 4.7 mM KCl, 2.55 mM CaCl2), 1.2 mM KH2PO4, 1.2 mM MgSO4, 25 mM NaHCO3, 7.5 mM glucose. In each single experiment, two from four strips obtained from the same prostate were allocated to the control group (without inhibitor or antagonist), and two others to the inhibitor/antagonist group (resulting in duplicate determination for each group in each single experiment). All four samples of one experiment were examined in four chambers of the same organ bath. Consequently, control and inhibitor curves in each series/diagram were obtained from the same prostates, but different prostates were examined for different series/diagrams. […] Only one curve was recorded with each sample, i. e. for one agonist, or for electric field stimulation (EFS).
(§1) After mounting in organ bath chambers, preparations were stretched to 4.9 mN and left to equilibrate for 45 min. […] After the equilibration period, maximum contraction induced by 80 mM KCl was assessed. […]

human prostate tissues [3] = test: organ bath, EFS-induced (neurogenic) contractions of human prostate strips
Excerpt: Patients who underwent previous transurethral resection of the prostate (TURP) were excluded. […] Informed consent was obtained from all patients. According to the ethical approval, samples and data were collected and analyzed anonymously, so that no data on patients' characteristics were stored. Samples were taken immediately after prostatectomy, following macroscopical examination by an uro-pathologist. […] For macroscopic examination and sampling, the prostate was opened by a single longitudinal cut from the capsule to the urethra. Subsequently, both intersections were checked macroscopically for any obvious tumor infiltration. […] Prostates showing tumors in the periurethral zone in macroscopic inspection were not subjected to sampling and were not included in this study. Organ bath studies were performed immediately after sampling, while samples for molecular analyses were shock frozen in liquid nitrogen and stored at −80° C.
In each single experiment, two from four strips obtained from the same prostate were allocated to the control group (without inhibitor or antagonist), and two others to the inhibitor/antagonist group (resulting in duplicate determination for each group in each single experiment). All four samples of one experiment were examined in four chambers of the same organ bath. Consequently, control and inhibitor curves in each series/diagram were obtained from the same prostates, but different prostates were examined for different series/diagrams. […] Therefore, and considering that prostate tissues from radical prostatectomy may show considerable heterogeneity, statistical comparisons were only performed between groups within the same series (i. e. containing tissues from the same prostates for inhibitor and control group), but not between series obtained from different prostates (i. e., not across different series of organ bath experiments). Only one curve was recorded with each sample, i. e. for one agonist, or for electric field stimulation (EFS).
Subsequently, chambers were washed three times with Krebs-Henseleit solution for a total of 30 min.
Application of EFS simulates action potentials, resulting in the release of endogenous neurotransmitters, including noradrenaline. […] For EFS, tissue strips were placed between two parallel platinum electrodes connected to a CS4 stimulator (Danish Myotechnology). […] EFS-induced contractile responses were studied at frequencies of 2, 4, 8, 16, and 32 Hz, with train intervals of 30 s between stimulations.
Data analyses and calculations were based on maximum peak heights of contractions. For calculation of agonist- or EFS-induced contractions, tensions were expressed as % of KCl-induced contractions, as this may correct different stromal/epithelial ratios, different smooth muscle content, varying degree of BPH, or any other heterogeneity between prostate samples and patients.

[4] = CCK-8 viability (cytotoxicity) assay; type: cell-based; conditions: human, WPMY-1 cells (immortalized prostate stromal cells), read-out: decrease of viability
Description: (§2) WPMY-1 cells are an immortalized cell line obtained from human prostate stroma without prostate cancer (Webber et al., 1999). Cells were obtained from American Type Culture Collection (ATCC; Manassas, Va., USA), and kept in RPMI 1640 (Gibco, Carlsbad, Calif., USA) supplemented with 10% fetal calf serum (FCS) and 1% penicillin/streptomycin at 37° C. with 5% CO2. Before addition of onvansertib or DMSO, the medium was changed to a FCS-free medium. For Western blot analysis, cells were lyzed using radioimmunoprecipitation assay (RIPA) buffer (Sigma-Aldrich, St. Louis, Mo., USA), and removed from flasks after 15 min of incubation on ice. Cell debris was removed by centrifugation (10,000 g, 10 min, 4° C.), and different aliquots of supernatants were either subjected to protein determination, or boiled with SDS sample buffer.
Viability of cells was assessed using the Cell Counting Kit-8 (CCK-8) (Sigma-Aldrich, St. Louis, Mo., USA). […] Subsequently, cells were grown for different periods (24, 48, 72 h). Separate controls were performed for each period. At the end of this period, 10 μl of [2-(2-methoxy-4-nitrophenyl)-3-(4-nitrophenyl)-5-(2,4-disulfophenyl)-2H-tetrazolium monosodium salt (WST-8) from CCK-8 was added, and absorbance in each well was measured at 450 nm after incubation for 2 h at 37° C.

human prostate tissues [5] = test: organ bath, ATP-induced contractions of human prostate strips; conditions: read-out: inhibition of ATP-induced contraction
Description: (§3) Human prostate tissues were obtained from patients undergoing radical prostatectomy for prostate cancer (n=107). Patients who underwent previous transurethral resection of the prostate (TURP) were excluded. This study was carried out in accordance with the Declaration of Helsinki of the World Medical Association, and has been approved by the ethics committee of the Ludwig-Maximilians University, Munich, Germany (Ethikkommission bei der LMU Munchen, approval number 19-737). Informed consent was obtained from all patients. According to the ethical approval, samples and data were collected and analyzed anonymously, so that no data on patients' characteristics were stored. […]
(§4) Prostate strips (6×3×3 mm) were mounted in 10 ml aerated (95% 02 and 5% CO2) tissue baths (Danish Myotechnology, Aarhus, Denmark), containing Krebs-Henseleit solution (37° C., pH 7.4) with following composition: 118 mM NaCl, 4.7 mM KCl, 2.55 mM CaCl2), 1.2 mM KH2PO4, 1.2 mM MgSO4, 25 mM NaHCO3, 7.5 mM glucose. […] Only one curve was recorded with each sample, i. e. for one agonist, or for electric field stimulation (EFS).
as §1

[6] = in vivo; cited from earlier work
CK2 = conditions: Valsasina et al., 2012; cited from earlier work
human prostate tissues [7] = test: organ bath, U46619-induced contractions of human prostate strips; conditions: 100 nM onvansertib
Description: as §3, §4, §1

WPMY-1 cells [8] = test: plate colony formation assay; type: cell-based, human; conditions: 14 days
Description: as §2
Cells were incubated at 37° C. for 14 days, then washed twice with PBS, and fixed by 2 ml of 10% trichloroacetic acid overnight (4° C.). Subsequently, all plates were washed five times with cold water, and stained with 0.4% sulforhodamine B solution (diluted in 1% acetic acid) at room temperature for 30 min. Before taking photos, all plates were labeled and washed five times with 1% acetic acid. The number of colonies containing 50 cells or more was counted under a microscope.

human prostate tissues [9] = test: organ bath, endothelin-1-induced contractions of human prostate strips; conditions: read-out: inhibition of endothelin-1-induced contraction
Description: as §3, §4, §1

human prostate tissues [10] = test: organ bath, methoxamine-induced contractions of human prostate strips
Description: as §3, §4, §1

human prostate tissues [11] = test: organ bath, phenylephrine-induced contractions of human prostate strips
Description: as §3, §4, §1

[12] = humans, phase I, even by the lowest dosages tested (Weiss et al., 2018); cited from earlier work
296 kinases = conditions: cited from earlier work
WPMY-1 cells [13] = test: EdU proliferation assay; type: cell-based, human; conditions: 24 h
Description: as §2
WPMY-1 cells were plated with cell line-specific densities (50,000/well) on 16-well chambered coverslips (Thermo Scientific, Waltham, Mass., USA). […] 20 h later, cells were fixed with 3.7% formaldehyde. EdU incorporation was determined using the “EdU-Click 555” cell proliferation assay (Baseclick, Tutzing, Germany) according to the manufacturer's instructions. In this assay, incorporation of EdU into DNA is assessed by detection with fluorescing 5-carboxytetramethylrhodamine (5-TAMRA). Counterstaining of all nuclei was performed with DAPI. Cells were analyzed by fluorescence microscopy (excitation: 546 nm; emission: […]).

[14] = washout of onvansertib (100 nM) for 30 min

## NC(=O)c1sc2c([N+](=O)[O-])cc(C(F)(F)F)cc2[n+]1[O-] [cyclapolin]
Human prostate tissues [1]
  effect on endothelin-1-induced contractions of human prostate tissues: did not change

## C[C@H](Cc1cc2c(c(C(N)=O)c1)N(CCCO)CC2)NCCOc1ccccc1OCC(F)(F)F [silodosin, 1-(3-hydroxypropyl)-5-[(2 R)-2-[2-[2-(2,2,2-trifluoroethoxy)phenoxy]ethylamino]propyl]-2,3-dihydroindole-7-carboxamide, reference compound]
Human prostate tissues [2]; Homo sapiens, 100 μM noradrenaline, 100 nM silodosin
  inhibition at 0.1 µM: 84 ± 4.99%
Human prostate tissues [3]; 32 Hz, silodosin 100 nM combined with onvansertib 100 nM
  inhibition of EFS-induced contraction by add-on of silodosin, compared to onvansertib alone: 68% and 68±12.7%
Human prostate tissues [3]; Homo sapiens, 32 Hz, 100 nM silodosin
  inhibition at 0.1 µM: 47%

## COc1ccc(CCNCc2ccc(OCc3ccc(Cl)nc3)c(OC)c2)cc1OC [SBE 13]
Human prostate tissues [1]
  effect on endothelin-1-induced contractions of human prostate tissues: did not change

## CCOc1ccccc1OCCN[C@H](C)Cc1ccc(OC)c(S(N)(=O)=O)c1 [tamsulosin, 5-[(2 R)-2-[2-(2-ethoxyphenoxy)ethylamino]propyl]-2-methoxybenzenesulfonamide, reference compound]
Human prostate tissues [2]; Homo sapiens, 100 μM noradrenaline, 300 nM tamsulosin
  inhibition at 0.3 µM: 93 ± 3.5%
Human prostate tissues [3]; 32 Hz, tamsulosin 300 nM combined with onvansertib 100 nM
  inhibition of EFS-induced contraction by add-on of tamsulosin, compared to onvansertib alone: 68% and 68±12.2%
Human prostate tissues [3]; Homo sapiens, 32 Hz, 300 nM tamsulosin
  inhibition at 0.3 µM: 48%

## CN1CCN(c2ccc(OC(F)(F)F)c(Nc3ncc4c(n3)-c3c(c(C(N)=O)nn3CCO)CC4)c2)CC1 [onvansertib, 1-(2-hydroxyethyl)-8-{[5-(4-methylpiperazin-1-yl)-2-(trifluoromethoxy)phenyl]amino}-4,5-dihydro-1H-pyrazolo[4,3-h] quinazoline-3-carboxamide]
[4]; 10 nM, 24 h
  cytotoxicity at 24 h, 10 nM: 15 ± 8.8%
[4]; 10 nM, 48 h
  cytotoxicity at 48 h, 10 nM: 28 ± 8.3%
[4]; 10 nM, 72 h
  cytotoxicity at 72 h, 10 nM: 40 ± 4.4%
[4]; 100 nM, 24 h
  cytotoxicity at 24 h, 100 nM: 63 ± 2.2%
[4]; 100 nM, 48 h
  cytotoxicity at 48 h, 100 nM: 86 ± 1.9%
[4]; 100 nM, 72 h
  cytotoxicity at 72 h, 100 nM: 89 ± 1.4%
Human prostate tissues [5]
  inhibition at 0.1 µM: 51 ± 18.6%
[6]
  oral bioavailability: good oral bioavailability
CK2
  IC50: 826 nM
Human prostate tissues [7]
  effect on U46619-induced contractions: did not change
Human prostate tissues [2]; Homo sapiens
  inhibition at 0.1 µM: 45 ± 9.7%
  inhibition at 1 µM: 41 ± 6.2%
Human prostate tissues [2]; [14]
  noradrenaline-induced contractions after washout versus DMSO: did not differ
WPMY-1 cells [8]; 10 nM
  decrease of colony formation: 39±4.5%
WPMY-1 cells [8]; 50 nM
  decrease of colony formation: 89±1.9%
WPMY-1 cells [8]; 100 nM
  decrease of colony formation: 97±0.4%
Human prostate tissues [9]
  inhibition at 0.1 µM: 45 ± 6.6%
Human prostate tissues [10]
  inhibition at 0.1 µM: 43 ± 19.4%
Human prostate tissues [11]
  inhibition at 0.1 µM: 47 ± 16.2%
[12]
  plasma concentrations: three-digit nanomolar range
296 kinases; tested at 100 nM against 296 kinases
  kinases inhibited: inhibition only of PLK1
296 kinases; tested at 1 μM against 296 kinases, including PLK1
  number of kinases with decreases in activities (<50%): 11
Human prostate tissues [3]; 32 Hz, onvansertib 100 nM combined with silodosin 100 nM
  inhibition of EFS-induced contraction by add-on of onvansertib, compared to silodosin alone: 61% and 61±9.8%
Human prostate tissues [3]; 32 Hz, onvansertib 100 nM combined with tamsulosin 300 nM
  inhibition of EFS-induced contraction by add-on of onvansertib, compared to tamsulosin alone: 59% and 59±11.5%
Human prostate tissues [3]; Homo sapiens
  inhibition at 0.1 µM: 34%
  inhibition at 1 µM: 34%
Human prostate tissues [3]; [14]
  EFS-induced contractions after washout versus DMSO: did not differ
WPMY-1 cells [13]; 10 nM
  decrease of percentage of proliferating cells: 18±0.1%
WPMY-1 cells [13]; 50 nM
  decrease of percentage of proliferating cells: 24±2.1%
WPMY-1 cells [13]; 100 nM
  decrease of percentage of proliferating cells: 35±2.0%
